Test results: US5834436A, “Membrane-permeant second messengers” (priority 1995, dated 1998)

Assays:
[1] = tested on: T84 cells; experiment: cells; format: cell-based; conditions: for EC50: Homo sapiens, T84, 0.2 h, ISC 12 min after addition, read-out: EC50 for Cl- secretion
Excerpt: A convenient test system is the intestinal cell line T84, in which chloride secretion can be continuously monitored by mounting confluent monolayers of cells in Ussing chambers (42).

[2] = target: cAMP-dependent protein kinase (PKA) (Bos taurus, UniProt P00514); experiment: cell-based; format: cell-based
[3] = target: cAMP-dependent kinase type I (FICRhR) (Bos taurus, UniProt P00514); experiment: biochemical
Excerpt: When PKA is doubly labeled with fluorescein on its catalytic subunits and rhodamine on its regulatory subunits to produce FICRhR, fluorescence energy transfer from the fluorescein to rhodamine occurs in the holoenzyme complex but is disrupted upon activation and dissociation of the subunits. The change in the ratio of fluorescein to rhodamine emissions parallels the increase in kinase activity and can be nondestructively imaged in single cells. REF-52 fibroblasts were microinjected with FICRhR and emission ratio images recorded at room temperature as previously described (27).

[4] = tested on: angelfish (Pterophyllum scalare) melanophores; experiment: Pigment dispersion in angelfish melanophores on isolated scales (FIG. 3); format: cell-based; conditions: for reversibility of dispersion (in words): removal of extracellular compound and epinephrine
Method: Melanophores permit a visual single-cell assay for the ability of cAMP analogs to enter cells and mimic cAMP actions. The melanophores were isolated on angelfish scales and the epidermis was stripped off. […] Dispersion was just detectable at 1 μM and half-maximal near 10 μM (FIG. 3A). […] The preceding examples are summarized in (64).

[5] = tested on: REF-52 fibroblasts; experiment: Cytosolic free Ca2+ imaging (fura-2) in single REF-52 fibroblasts (FIG. 6); format: cell-based
Method: The best-established biological effect of IP3 is to release Ca^2+ from internal stores (26), so IP3 /PM (5a, R=Et, R'=H) was tested by imaging cytosolic free Ca^2+ levels in single REF-52 fibroblasts using standard methodology (58). Cells were loaded with the Ca^2+ -indicator fura-2 and viewed by fluorescence excitation ratioing. IP3 /PM (40 μM) was applied extracellularly while monitoring cytosolic Ca^2+ concentrations.

[6] = tested on: 1321N1 astrocytoma cells; experiment: Cytosolic free Ca2+ imaging (fura-2) in 1321N1 astrocytoma cells (FIGS. 7-9); format: cell-based
Method: Biological tests on 1321N1 astrocytoma cells were performed similarly to the tests on REF-52 cells (71). The concentration of Cytosolic free Ca^2+ (ordinate, in units of […]) in fura-2-loaded 1321N1 astrocytoma cells is shown as a function of time (abscissa, in units of seconds). At the dotted vertical line labeled 1, 20 μM inositol-1,4,5-triphosphate propionyloxymethyl ester (5a, R=Et, R'=H) was added. […] Subsequently the cells could respond to carbachol (200 μM, delivered at the dotted vertical line labeled 2), a drug that stimulates the endogenous generation of inositol-1,4,5-triphosphate. However, the response to carbachol is depressed by the prior treatment with the inositol-1,4,5-triphosphate propionyloxymethyl ester. Likewise the Ca^2+ response to thapsigargin (100 nM, delivered at the dotted vertical line labeled 3), another drug that releases stored Ca^2+, is depressed.
A test similar to the one shown in FIG. 7 was conducted except that the medium lacked extracellular Ca^2+ and a dose of 60 μM inositol-1,4,5-triphosphate propionyloxymethyl ester was added at the dotted vertical line labeled 1. […] Because no extracellular Ca^2+ was present, this response must have represented release from intracellular Ca^2+ stores. […] The much greater degree of inhibition of the carbachol response compared to the previous example (FIG. 7) is due to the higher dose of the inositol-1,4,5-triphosphate propionyloxymethyl ester and the absence of extracellular Ca^2+, which reduces refilling of Ca^2+ stores.
In a further example, the same test as set forth above was conducted with astrocytoma cells, except that 2 μM inositol-1,4,5-triphosphate butyryloxymethyl ester (5a, R=Pr, R'=H) was used instead of the propionyloxymethyl ester.

[7] = 20 μM, extracellular Ca2+ present, FIG. 7
[8] = 60 μM, no extracellular Ca2+, FIG. 8

Sequence of cAMP-dependent kinase type I (FICRhR) (P00514 whole entry): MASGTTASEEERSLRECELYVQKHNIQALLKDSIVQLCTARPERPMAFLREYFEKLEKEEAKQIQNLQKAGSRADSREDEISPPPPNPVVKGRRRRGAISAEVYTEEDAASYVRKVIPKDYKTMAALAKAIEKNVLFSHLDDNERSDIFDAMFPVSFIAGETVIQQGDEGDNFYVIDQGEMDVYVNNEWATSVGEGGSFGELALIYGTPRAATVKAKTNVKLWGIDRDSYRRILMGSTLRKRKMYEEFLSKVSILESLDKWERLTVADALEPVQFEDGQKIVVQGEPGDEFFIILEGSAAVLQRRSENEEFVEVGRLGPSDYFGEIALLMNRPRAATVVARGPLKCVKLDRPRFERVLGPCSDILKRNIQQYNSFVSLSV

Nc1ncnc2c1nc(Br)n2[C@@H]1O[C@@H]2COP(=O)(O)O[C@H]2[C@H]1O [Compound 8-Br-cAMP, 8-bromo-cAMP, reference compound]
EC50 [1]: 1500 µM

CCCC(=O)Nc1ncnc2c1ncn2[C@@H]1O[C@@H]2COP(=O)(O)O[C@H]2[C@H]1OC(=O)CCC [Bt2 cAMP, N^6,O^2 '-dibutyryl cAMP, reference compound]
delay and time course of PKA activation relative to Bt2 cAMP/AM (in words) ([2]; 1 mM, FIG. 1 Graph B): Much the same delay and overall time course
concentration required for PKA activation ([2]; extracellular application): 1 mM
activation at 10 µM ([3]; 10 μM (printed)): 16%
potency relative to cAMP ([3]; in vitro, FICRhR): roughly 1/100
activation at 10 µM ([3]; second Bt2 cAMP column, 10 μM printed): 61%
EC50 [1]: 400 µM
pigment dispersion (in words) ([4]; 1 mM): unable to cause any detectable dispersion

CCCC(=O)Nc1ncnc2c1ncn2[C@@H]1O[C@@H]2COP(=O)(OCOC(C)=O)O[C@H]2[C@H]1OC(=O)CCC (some centres unmarked) [Bt2 cAMP/AM, N^6,O^2 '-Dibutyryl Adenosine 3',5'-cyclic Monophosphate Acetoxymethyl Ester]
time to maximal change in fluorescence ratio ([2]; 10 μM (highest dose), added extracellularly, room temperature): ≤ 15 min
activation at 1 µM ([2]; REF52, 1 μM (intermediate dose), read-out: plateau of fluorescence ratio change (% of the maximal change)): > 50%
onset of separation of regulatory and catalytic subunit of FICRhR after addition ([2]; extracellular addition): roughly 2 min
separation of the FICRhR subunits in vitro (in words) ([3]; 1 μM): no separation of the subunits
activation at 10 µM ([3]; 10 μM (printed)): 0%
time to maximum ISC ([1]; 3 μM, serosal bathing solution): 20 min
increase in potency by acetoxymethyl group (vs Bt2 cAMP) ([1]; Cl- secretion): 200 fold
EC50 [1]: 2 µM
kinetics of activation, ester vs Bt2 cAMP (in words) ([1]; T84 cells): essentially indistinguishable kinetics of activation
ISC response at other concentrations (in words) ([1]; relative to 3 μM): Higher concentrations of the derivative caused faster but not significantly greater responses, whereas lower concentrations reached lower maximum ISC values
pigment dispersion (in words) ([4]; 100 μM, extracellular): essentially complete dispersal
reversibility of dispersion (in words) ([4]; 100 μM): easily reversed
onset of dispersion relative to 100 μM (in words) ([4]; 1 mM): slightly faster onset of action
reversibility of dispersion (in words) ([4]; 1 mM): could not be readily reversed
minimal effective concentration ([4]; Pterophyllum scalare, Melanophore, read-out: concentration at which dispersion was just detectable): 1 µM
EC50 ([4]; Pterophyllum scalare, Melanophore, read-out: concentration for half-maximal dispersion): ~10 µM
increase in potency by AM ester group (vs Bt2 cAMP) ([4]; melanophore dispersion): more than 1000

CCC(=O)OCOP(=O)(OCOC(=O)CC)O[C@@H]1[C@H](O)[C@H](O)[C@@H](OP(=O)(OCOC(=O)CC)OCOC(=O)CC)[C@H](OP(=O)(OCOC(=O)CC)OCOC(=O)CC)[C@H]1O [IP3 /PM, D-myo-inositol-1,4,5-triphosphate propionyloxymethyl ester]
cytosolic Ca2+ concentration after addition (in words) ([5]; 40 μM, extracellular): increased rapidly
effect of subsequent vasopressin (in words) ([5]; after 40 μM IP3/PM): much less effect than normal
Ca2+ response to thapsigargin (100 nM) after treatment (in words) [6, 7]: depressed
delay of cytosolic Ca2+ elevation [6, 7]: about 100 second
elevation of cytosolic Ca2+ (in words) [6, 7]: sizable elevation of cytosolic Ca^2+
response to carbachol (200 μM) after treatment (in words) [6, 7]: depressed
delay of cytosolic Ca2+ elevation [6, 8]: ~50 s
elevation of cytosolic Ca2+ (in words) [6, 8]: sizable elevation of cytosolic Ca^2+
response to carbachol (200 μM) after treatment (in words) [6, 8]: greatly depressed
Ca2+ release from internal stores (in words) ([6]; summary, intact REF-52 fibroblasts and astrocytoma cells): released Ca^2+ from internal stores

Nc1ncnc2c1nc(Sc1ccc(Cl)cc1)n2[C@@H]1O[C@@H]2COP(=O)(O)O[C@H]2[C@H]1O [Compound 8-pCPT-cAMP, 8-para-chlorophenylthio (cCPT) cAMP, reference compound]
EC50 [1]: 100 µM

D-myo-inositol-1,4,5-triphosphate butyryloxymethyl ester [IP3 /BM]
potency relative to propionyloxymethyl ester (in words) ([6]; 2 μM, FIG. 9): somewhat more potent
rate of effects relative to propionyloxymethyl ester (in words) ([6]; 2 μM, FIG. 9): slower to appear and decay
